This is an account of results in patent publication US20050226135A1, “Write-once information recording medium” (KABUSHIKI KAISHA TOSHIBA, priority 2004, published 2005).

SMILES strings stand for the structures.

The series can be described thus: solubility in an organic solvent at 20° C. by an ordinary method. The format is physicochemical. To be noted: organic solvents of amide, alcohol, ketone, nitrile and halogen systems (chloroform, N,N-dimethyl formamide, methanol, 2,2,3,3-tetrafluoro-1-propanol, ethyl methyl ketone, acetonitrile).

Turning to `COc1ccc(OC)c(/N=N/C(=N\[N]([Ni][N](/N=C(\N=N\c2cc(OC)ccc2OC)c2ccccn2)c2ccc([N+](=O)[O-])cn2)c2ccc([N+](=O)[O-])cn2)c2ccccn2)c1` [chemical formula 3], the “solubility in an organic solvent” value was “practically applicable solubility”.
